We go through 2 substances from patent US8906846B2, “Method of treating inflammatory bowel disease by administering a clip-inducing agent” (The Texas A&M University System, priority 2011, dated 2014).

One assay relates to C57BL/6 splenocytes. The assay can be described thus: Effects of CpG, MKR.4 and anti-MHC class II antibody on C57BL/6 splenocyte viability counts (Example 2). The assay is classed as cell-based, mouse. The settings on record: CpG 5 ug/mL at start, MKR.4 5 ug/mL 24 h later for 2 h, Anti MHC Class II 5 ug/mL, viability counts 24 h after antibody. How it is done: C57BL/6 were Prepared as Follows: • A spleen from a C57BL/6 mouse was placed in a cell strainer in a petri dish with 6 mL of PBS • The spleen was mashed to produce a cell suspension • The PBS splenocyte cell suspension was transferred into a labeled 15 mL conical tube and centrifuged for 5 minutes at 1000 rpm • The pellet was resuspended in 1 mL of PBS • Geys was prepared to lyse the red blood cells • 7 mL of DI H20 • 0.5 mL of Geys B • 0.5 mL of Geys C • weighed out […] of NH4Cl • Mixed the […] of NH4Cl with 2 mL of Geys A • Transferred the dissolved solution to a 15 mL conical tube with the H20, Geys B, and Geys C • 3 mL of the Geys solution was added to the 1 mL of PBS cell suspension, mixed well and placed on ice for 1 minute (frequently inverted solution in tube on ice during the 1 minute) • The mixture was centrifuged for 5 minutes at 1000 rpm, washed with 5 mL of PBS, centrifuged for 5 minutes at 1000 rpm and resuspended in 10 mL of PBS • A hemacytometer count was performed: 99.0*10^6 cells total (9.9*10^6 cells/mL) plate 4*10^6 cells per well*8 wells=32 million; 32*10^6/9.9*10^6=3.23 mL of this suspension needed to obtain 32*10^6 cells • Centrifuged 3.23 mL of the suspension for 5 minutes at 1000 rpm and resuspended the pellet in 8 mL of 5% FBS RPMI • 1 mL of suspension was added to each well (12-well plate) • Added another 2 mL of 5% FBS RPMI to each well to bring the final volume up to 3 mL
(§1) 8 wells were set up for the experiment for each cell type (CRL-5822 and C57BL/6) with no treatment, with CpG, MKR.4 peptide, with MKR.4 peptide+CpG and with or without addition of purified Anti Class-II (HLA-DR,DP,DQ) treatment in the amounts listed below.
C57BL/6 • CpG: • (x) (1 mg/mL stock)=(5 ug/mL) (3 mL) • x=15 ul • MKR.4: • (x) (5 mg/mL stock)=(5 ug/mL) (3 mL) • x=3 ul • Anti MHC Class II • Treat at 5 ug/mL • Stock is at 1 mg/mL • (x) (1 mg/mL)=(5 ug/mL) (3 mL) • x=15 ul/well
(§2) CpG was administered to activate the cells and induce CLIP expression. MKR.4 was added to select wells 24 hours after cell activation. The cells were incubated with MKR.4 for 2 hours. Then fresh media with or without Anti MHC Class II was added. 24 hours after Anti MHC Class II was added to the wells viability counts were performed.

Assay [1] concerns CRL-5822 cells. Put plainly: Effects of CpG, MKR.4 and anti-MHC class II antibody on CRL-5822 cell viability counts (Example 2). The assay is classed as cell-based, human. The following applies: CpG 1 ug/mL at start, MKR.4 2.5 ug/mL 24 h later for 2 h, Anti MHC Class II 5 ug/mL, viability counts 24 h after antibody. As for the experimental part: CRL-5822 were Prepared as Follows: • Removed the media from a flask of CRL-5822 using a sterile glass pipet and vacuum • Added 1.5 mL of accutase to the flask and placed in incubator for 20 minutes • Washed with 3 mL of PBS • Transferred all to a sterile 15 mL conical tube • Centrifuged for 5′@1000 rpm • Removed supernatant with sterile glass pipet and vacuum • Resuspended in 3 mL of PBS • Performed a hemacytometer count indicating: 1.14*10^6 cells total of CRL-5822 cells • 1.14*10^6/8 wells+2 wells for culture maintenance=10 wells • 1.14*10^6/10 wells=[…] cells per well • Centrifuged the 3 mL of cell suspension for 5′ at 1000 rpm • Resuspended pellet in 10 mL of 10% FBS RPMI • 1 mL of this was added to 2 wells in a 12-well plate added 1 mL of fresh 10% FBS RPMI to each well to bring the total volume up to 2 mL.
as §1
CRL-5822 • CpG: • (x) (1 mg/mL stock)=(1 ug/mL) (2 mL) • x=2 ul • MKR.4: • (x) (5 mg/mL stock)=(2.5 ug/mL) (2 mL) • x=1 ul • Anti MHC Class II • Treat at 5 ug/mL • Stock is at 1 mg/mL • (x) (1 mg/mL)=(5 ug/mL) (2 mL) • x=10 ul/well
as §2

Assay [2] has as its system CRL-5822 cells. The assay can be described thus: Effects of LPS, MKR.4 and anti-MHC class II antibody on CRL-5822 cell viability counts (Example 1). Type of assay: cell-based, human. The settings on record: LPS 1 ug/mL at start, MKR.4 2.5 ug/mL 24 h later for 2 h, Anti MHC Class II 5 ug/mL, viability counts 24 h after antibody. How it is done: Methods • The media was removed from a flask of CRL-5822 using a sterile glass pipet and vacuum and 1.5 mL of accutase was added to the flask and placed in incubator for 20 minutes • The cells were washed with 3 mL of PBS and transferred to a sterile 15 mL conical tube and centrifuged for 5 minutes @1000 rpm • The supernatant was removed with sterile glass pipet and vacuum and the pellet resuspended in 5 mL of PBS • A cell count was performed using the TC-10 automated counter • Loaded 10 ul of cell suspension+10 ul of trypan blue into disposable counting slide • Loaded slide into the TC-10 • Count • Live: 3.54*10^4 cells/mL*5 mL=177,000 cells total • 177,000/9 wells (8 wells in experiment+1 to maintain culture)=19,666 cells/well (flask). • The 5 mL of cell suspension was centrifuged for 5′ at 1000 rpm, the pellet was resuspended in 9 mL of 10% FBS RPMI • 1 mL of the cell suspension was added to a T-25 flask that had 4 mL of media in it and placed in the incubator. • After culture 1 mL of the cell suspension was added to each well (8 wells in a labeled 24 well plate) • A fresh vial of MKR.4 was resuspended in sterile DMSO • 7 mg of peptide was used to make a 5 mg/mL stock • 7 mg/mL=5 mg/mL=1.4 mL of DMSO • The peptide was added into 1.4 mL of DMSO, under the hood to maintain sterility • Once all of the peptide was dissolved, 200 ul aliquots were made […]

Turning to “5′-tcgtcgttttgtcgttttgtcgtt-3′ [CpG, reference compound]”, the entries for the “Total Dead” value in the assay with C57BL/6 splenocytes and in the assay with CRL-5822 cells [1] were 0.08*10^6 and 0.07*10^6, respectively. Further, the figures for the “Total Live” value in the assay with C57BL/6 splenocytes and in the assay on CRL-5822 cells [1] were 1.25*10^6 and 0.35*10^6, respectively.

“ANS GFR IMA VLA SGG QY (ANSGFRIMAVLASGGQY) [MKR.4]”: the “Total Dead” value in the assay with C57BL/6 splenocytes is on record as 0.10*10^6; in the assay with CRL-5822 cells [2] it was 0.07*10^6; with CRL-5822 cells [1], 0.08*10^6. For the same substance, the “Total Live” value with C57BL/6 splenocytes is recorded as 0.44*10^6; with CRL-5822 cells [2], 0.32*10^6; in the assay with CRL-5822 cells [1], 0.24*10^6.
